Laboratory results published in patent US20080161583A1, “Epimerization methodologies for recovering stereoisomers in high yield and purity” (priority 2006, published 2008).
Values after ≈ are worked out from the molar mass of the structure shown.

Test: Solubility of an epimer in a solvent at the epimerization temperature (saturated slurry, filtered sample, HPLC assay)
Assay type: physicochemical
Settings: saturated slurry in denatured ethanol (2B-3), organic solvent or mixture, thermodynamic from solid
Protocol: The solubility of a first epimer in a solvent may be determined as follows. Sampling syringes and saturated slurry samples are pre-heated (or pre-chilled) to the desired epimerization temperature, e.g., 65 C or 70 C in some embodiments. The syringe is preheated (or pre-chilled) to the same temperature in a vessel containing only the solvent and the syringe. The syringes may be 5 ml disposable syringes. The saturated slurry samples are prepared by combining the solvent under investigation and enough of the purified first epimer to ensure that at least some precipitate is present so that the sample slurry is saturated. A purified epimer refers to an epimer having a purity of at least 85% by weight with respect to the total weight of epimers, preferably at least 90% by weight, more preferably at least 95% by weight. When both the sample and the syringe are at the desired temperature, 1.5 ml samples are quickly drawn into the syringe. The sampling syringes desirably acquire samples through a suitable filter to avoid bringing solids into the syringe. A 25 mm, 0.45 micron PTFE disk filter is suitable. 1 ml of each sample is blown down and then diluted in 10 ml of a solvent in which the epimer is fully soluble such as methanol. HPLC analysis is then performed to determine the amount of epimer in the diluted sample. […]

- solubility (65 C): 23.2 mg/mL (≈ 53.9 mM)
- solubility (70 C): 27.1 mg/mL (≈ 62.8 mM)
Compound: CC1(C)COC2(CC[C@H](CC(C(=O)O)c3ccc(S(C)(=O)=O)c(Cl)c3)C2)OC1 (some centres unmarked) [R,R epimer]
